A short description of data set [1]: Elimination rate constant in CD1 mouse kidney assessed as baloxavir acid level at 15 mg/kg, po administered as single dose measured up to 24 hrs by LC-MS/MS analysis. Format: ADME, organism-based. The note with it: in vivo.
Data set [2] in a line: Ratio of AUClast in CD1 mouse small intestine to plasma assessed as baloxavir acid level at 15 mg/kg, po administered as single dose measured up to 24 hrs by LC-MS/MS analysis. Format: ADME, organism-based. The note with it: other tissue.
Data set [3] in a line: Ratio of AUClast in CD1 mouse lung to plasma assessed as baloxavir acid level at 15 mg/kg, po administered as single dose by LC-MS/MS analysis. The class given is ADME, organism-based. The note with it: other tissue.
Data set [4] in a line: Ratio of AUClast in CD1 mouse muscle to plasma assessed as baloxavir acid level at 15 mg/kg, po administered as single dose measured up to 24 hrs by LC-MS/MS analysis. Format: ADME, organism-based. The note with it: other tissue.
Data set [5] can be described thus: Elimination rate constant in CD1 mouse spleen assessed as baloxavir acid level at 15 mg/kg, po administered as single dose measured up to 24 hrs by LC-MS/MS analysis. Format: ADME, organism-based. The note with it: in vivo.
Data set [6] can be described thus: AUClast in CD1 mouse spleen assessed as baloxavir acid level at 15 mg/kg, po administered as single dose measured up to 24 hrs by LC-MS/MS analysis. Format: ADME, organism-based. The note with it: in vivo.
The nature of data set [7]: Tmax in CD1 mouse plasma assessed as baloxavir acid level at 15 mg/kg, po administered as single dose measured up to 24 hrs by LC-MS/MS analysis. Format: ADME, organism-based. The note with it: in vivo.
Data set [8] can be described thus: Half life in CD1 mouse plasma assessed as baloxavir acid level at 15 mg/kg, po administered as single dose measured up to 24 hrs by LC-MS/MS analysis. Format: ADME, organism-based. The note with it: in vivo.
Data set [9] in a line: Ratio of AUClast in CD1 mouse lung to plasma assessed as baloxavir acid level at 15 mg/kg, po administered as single dose measured up to 24 hrs by LC-MS/MS analysis. Format: ADME, organism-based. The note with it: other tissue.
A short description of data set [10]: AUClast in CD1 mouse lung assessed as baloxavir acid level at 15 mg/kg, po administered as single dose measured up to 24 hrs by LC-MS/MS analysis. The class given is ADME, organism-based. The note with it: in vivo.
Data set [11] in a line: Cmax in CD1 mouse blood assessed as baloxavir acid level at 15 mg/kg, po administered as single dose measured up to 24 hrs by LC-MS/MS analysis. The class given is ADME, organism-based. Further details: dose 15 mg/kg, route oral. The note with it: in vivo.
Data set [12] can be described thus: Tmax in CD1 mouse kidney assessed as baloxavir acid level at 15 mg/kg, po administered as single dose measured up to 24 hrs by LC-MS/MS analysis. The class given is ADME, organism-based. The note with it: in vivo.
The nature of data set [13]: Half life in CD1 mouse small intestine assessed as baloxavir acid level at 15 mg/kg, po administered as single dose measured up to 24 hrs by LC-MS/MS analysis. The note with it: in vivo. The class given is ADME, organism-based.
A short description of data set [14]: Tmax in CD1 mouse brain assessed as baloxavir acid level at 15 mg/kg, po administered as single dose measured up to 24 hrs by LC-MS/MS analysis. Format: ADME, organism-based. The note with it: in vivo.
Data set [15] can be described thus: AUClast in CD1 mouse heart assessed as (12aR)-12-(Diphenylmethyl)-7-hydroxy-3,4,12,12a-tetrahydro-1H-[1,4]oxazino[3,4-c]pyrido[2,1-f ][1,2,4]triazine-6,8-dione level at 15 mg/kg, po administered as single dose measured up to 24 hrs by LC-MS/MS analysis. The class given is ADME, organism-based. The note with it: in vivo.
The nature of data set [16]: Ratio of AUClast in CD1 mouse kidney to plasma assessed as (12aR)-12-(Diphenylmethyl)-7-hydroxy-3,4,12,12a-tetrahydro-1H-[1,4]oxazino[3,4-c]pyrido[2,1-f ][1,2,4]triazine-6,8-dione level at 15 mg/kg, po administered as single dose measured up to 24 hrs by LC-MS/MS analysis. The class given is ADME, organism-based. The note with it: other tissue.
Data set [17] can be described thus: AUClast in CD1 mouse muscle assessed as (12aR)-12-(Diphenylmethyl)-7-hydroxy-3,4,12,12a-tetrahydro-1H-[1,4]oxazino[3,4-c]pyrido[2,1-f ][1,2,4]triazine-6,8-dione level at 15 mg/kg, po administered as single dose measured up to 24 hrs by LC-MS/MS analysis. The note with it: in vivo. The class given is ADME, organism-based, Muscle tissue.
Data set [18] can be described thus: Elimination rate constant in CD1 mouse spleen assessed as (12aR)-12-(Diphenylmethyl)-7-hydroxy-3,4,12,12a-tetrahydro-1H-[1,4]oxazino[3,4-c]pyrido[2,1-f ][1,2,4]triazine-6,8-dione level at 15 mg/kg, po administered as single dose measured up to 24 hrs by LC-MS/MS analysis. The class given is ADME, organism-based. The note with it: in vivo.
The nature of data set [19]: Ratio of free drug level in CD1 mouse blood assessed as (12aR)-12-(Diphenylmethyl)-7-hydroxy-3,4,12,12a-tetrahydro-1H-[1,4]oxazino[3,4-c]pyrido[2,1-f ][1,2,4]triazine-6,8-dione level at 50 mg/kg, po to EC50 for antiviral activity against Influenza A/California/04/2009 (H1N1)pdm09 infected in MDCK cells. The class given is ADME, organism-based. The note with it: in vivo.

Data set [20] in a line: Acute toxicity in CD1 mouse assessed as effect on water consumption at 2000 mg/kg, po measured for 2 weeks. Format: organism-based. The note with it: in vivo, 336 h.
Data set [21] is described as follows: Cytotoxicity against human HepG2 cells assessed as reduction in cell viability measured after 24 hrs in presence of glucose by MTT assay. The class given is cell-based. For orientation: Formazan colour is commonly taken as a measure of viable cells.
Data set [22] is described as follows: Selectivity ratio of CC50 for human HepG2 cells assessed as reduction in cell viability measured after 24 hrs in presence of glucose to CC50 for human HepG2 cells assessed as reduction in cell viability measured after 24 hrs in presence of galactose. Format: cell-based.
Data set [23] in a line: Ratio of AUClast in CD1 mouse muscle to plasma assessed as (12aR)-12-(Diphenylmethyl)-7-hydroxy-3,4,12,12a-tetrahydro-1H-[1,4]oxazino[3,4-c]pyrido[2,1-f ][1,2,4]triazine-6,8-dione level at 15 mg/kg, po administered as single dose measured up to 24 hrs by LC-MS/MS analysis. The class given is ADME, organism-based. The note with it: other tissue.
A short description of data set [24]: Cmax in CD1 mouse liver assessed as (12aR)-12-(Diphenylmethyl)-7-hydroxy-3,4,12,12a-tetrahydro-1H-[1,4]oxazino[3,4-c]pyrido[2,1-f ][1,2,4]triazine-6,8-dione level at 15 mg/kg, po administered as single dose measured up to 24 hrs by LC-MS/MS analysis. Format: ADME, organism-based. The note with it: in vivo. The arrangement: dose 15 mg/kg, route oral.
Data set [25] in a line: MRTlast in CD1 mouse small intestine assessed as (12aR)-12-(Diphenylmethyl)-7-hydroxy-3,4,12,12a-tetrahydro-1H-[1,4]oxazino[3,4-c]pyrido[2,1-f ][1,2,4]triazine-6,8-dione level at 15 mg/kg, po administered as single dose measured up to 24 hrs by LC-MS/MS analysis. The note with it: in vivo. Format: ADME, organism-based.
Data set [26] in a line: AUCinfinity in CD1 mouse muscle assessed as (12aR)-12-(Diphenylmethyl)-7-hydroxy-3,4,12,12a-tetrahydro-1H-[1,4]oxazino[3,4-c]pyrido[2,1-f ][1,2,4]triazine-6,8-dione level at 15 mg/kg, po administered as single dose measured up to 24 hrs by LC-MS/MS analysis. The class given is ADME, organism-based, Muscle tissue. Further details: dose 15 mg/kg, route oral, time infinity. The note with it: in vivo.

The nature of data set [27]: Half life in CD1 mouse heart assessed as (12aR)-12-(Diphenylmethyl)-7-hydroxy-3,4,12,12a-tetrahydro-1H-[1,4]oxazino[3,4-c]pyrido[2,1-f ][1,2,4]triazine-6,8-dione level at 15 mg/kg, po administered as single dose measured up to 24 hrs by LC-MS/MS analysis. The note with it: in vivo. Format: ADME, organism-based.

Usually Tmax stands for the time at which the peak concentration occurs. Broadly, the Cmax is the maximum level reached in the sampled fluid or tissue. On to `COC(=O)OCOc1c2n(ccc1=O)N([C@@H]1c3ccccc3SCc3c1ccc(F)c3F)[C@@H]1COCCN1C2=O` [BALOXAVIR MARBOXIL], for which the Kel in data set [1] worked out at 0.21 h⁻¹; in data set [5], 0.2 h⁻¹. Moreover, the “Ratio AUC” value in data set [2] is on record as 234; in [3], 16.7; in data set [4], 10.4; in data set [9], 21.1. Besides, the AUClast came out at 3611 ng·h/g in data set [6] and 8959 ng·h/g in data set [10]. Further, the time to peak (Tmax) in data set [7], in [12] and in [14] was 2 h in each case. Further, the t1/2 in [8] is 3.8 h; in [13], 3.13 h. Further, the peak concentration (Cmax) in data set [11] is 215 ng/g.
One may read the CC50 as the concentration giving 50% cytotoxicity. As to `COC(=O)OCOc1c2n(ccc1=O)N(C(c1ccccc1)c1ccccc1)[C@@H]1COCCN1C2=O`, the AUClast in data set [15] is 11111 ng·h/g; in data set [17] it was 7425 ng·h/g. The “Ratio AUC” value came out at 5.5 in data set [16] and 2.26 in data set [23]. Further, the Kel in data set [18] was 0.39 h⁻¹. Also, the Ratio in [19] is listed as 44. Besides, the Activity entry in data set [20] is “Non-Toxic”. The CC50 at 24 h in [21] was determined as 51 µM. For the same compound, the selectivity ratio at 24 h in data set [22] turned out to be 0.9. Further, the Cmax in [24] is listed as 12775 ng/g. Also, the MRTlast in data set [25] came to 1.28 h. Further, the AUC in data set [26] was 7693 ng·h/g. Moreover, the t1/2 in data set [27] turned out to be 1.69 h.

These data come from ChEMBL document CHEMBL4622979, “Non-rigid Diarylmethyl Analogs of Baloxavir as Cap-Dependent Endonuclease Inhibitors of Influenza Viruses” (J Med Chem, 2020).
